From patent publication US11919901B2 (Syndax Pharmaceuticals, Inc., priority 2021, dated 2024) come the findings set out here.

Molecules are shown by their SMILES.

As usually defined, the Ki is a dissociation constant, usually derived from enzyme kinetics or from competition with a known ligand. The term IC50 denotes the point on the concentration scale where inhibition reaches its midpoint. Read a high IC50 as a need for much substance. The EC50 is the concentration needed to bring the measured effect to its halfway point. A low value points to greater potency.

One data set deals with Menin-MLL (Homo sapiens (Human), UniProt O00255). Description: Determination of binding constants (Ki) to Menin-MLL (HTRF). Particulars: HTRF, 0.25 nM H-FL-Menin, 3.2 nM FITC-MLL-4-43, 24 hr incubation; for Ki: read-out: Menin-MLL Ki HTRF Assay: Ki.
Chain of Menin-MLL (O00255 whole entry): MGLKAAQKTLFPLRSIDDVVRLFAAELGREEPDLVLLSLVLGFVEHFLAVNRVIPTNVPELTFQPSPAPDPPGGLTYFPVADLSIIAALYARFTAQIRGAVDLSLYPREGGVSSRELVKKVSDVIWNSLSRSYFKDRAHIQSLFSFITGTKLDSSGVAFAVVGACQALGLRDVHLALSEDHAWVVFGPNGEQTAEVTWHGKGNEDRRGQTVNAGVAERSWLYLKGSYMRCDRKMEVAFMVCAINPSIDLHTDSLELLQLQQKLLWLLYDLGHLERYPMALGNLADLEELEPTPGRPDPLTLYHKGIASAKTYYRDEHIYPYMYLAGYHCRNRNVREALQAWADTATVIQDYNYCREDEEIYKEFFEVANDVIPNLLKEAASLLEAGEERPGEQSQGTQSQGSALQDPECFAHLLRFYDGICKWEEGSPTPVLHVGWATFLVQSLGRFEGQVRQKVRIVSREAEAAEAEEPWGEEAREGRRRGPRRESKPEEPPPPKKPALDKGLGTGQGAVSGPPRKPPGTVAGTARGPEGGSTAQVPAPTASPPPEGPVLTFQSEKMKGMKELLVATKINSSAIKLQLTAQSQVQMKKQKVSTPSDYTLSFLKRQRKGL
Another data set has as its target hERG (Homo sapiens (Human), UniProt Q12809). As to the kind of experiment: Patch clamp assay (hERG tail currents, whole-cell). The format is cell-based. Particulars: hERG transfected HEK 293 cells; for hERG % Remaining 30 μM: 30 μM compound; for hERG % Remaining 10 μM: 10 μM compound.

Chain of hERG (Q12809 whole entry): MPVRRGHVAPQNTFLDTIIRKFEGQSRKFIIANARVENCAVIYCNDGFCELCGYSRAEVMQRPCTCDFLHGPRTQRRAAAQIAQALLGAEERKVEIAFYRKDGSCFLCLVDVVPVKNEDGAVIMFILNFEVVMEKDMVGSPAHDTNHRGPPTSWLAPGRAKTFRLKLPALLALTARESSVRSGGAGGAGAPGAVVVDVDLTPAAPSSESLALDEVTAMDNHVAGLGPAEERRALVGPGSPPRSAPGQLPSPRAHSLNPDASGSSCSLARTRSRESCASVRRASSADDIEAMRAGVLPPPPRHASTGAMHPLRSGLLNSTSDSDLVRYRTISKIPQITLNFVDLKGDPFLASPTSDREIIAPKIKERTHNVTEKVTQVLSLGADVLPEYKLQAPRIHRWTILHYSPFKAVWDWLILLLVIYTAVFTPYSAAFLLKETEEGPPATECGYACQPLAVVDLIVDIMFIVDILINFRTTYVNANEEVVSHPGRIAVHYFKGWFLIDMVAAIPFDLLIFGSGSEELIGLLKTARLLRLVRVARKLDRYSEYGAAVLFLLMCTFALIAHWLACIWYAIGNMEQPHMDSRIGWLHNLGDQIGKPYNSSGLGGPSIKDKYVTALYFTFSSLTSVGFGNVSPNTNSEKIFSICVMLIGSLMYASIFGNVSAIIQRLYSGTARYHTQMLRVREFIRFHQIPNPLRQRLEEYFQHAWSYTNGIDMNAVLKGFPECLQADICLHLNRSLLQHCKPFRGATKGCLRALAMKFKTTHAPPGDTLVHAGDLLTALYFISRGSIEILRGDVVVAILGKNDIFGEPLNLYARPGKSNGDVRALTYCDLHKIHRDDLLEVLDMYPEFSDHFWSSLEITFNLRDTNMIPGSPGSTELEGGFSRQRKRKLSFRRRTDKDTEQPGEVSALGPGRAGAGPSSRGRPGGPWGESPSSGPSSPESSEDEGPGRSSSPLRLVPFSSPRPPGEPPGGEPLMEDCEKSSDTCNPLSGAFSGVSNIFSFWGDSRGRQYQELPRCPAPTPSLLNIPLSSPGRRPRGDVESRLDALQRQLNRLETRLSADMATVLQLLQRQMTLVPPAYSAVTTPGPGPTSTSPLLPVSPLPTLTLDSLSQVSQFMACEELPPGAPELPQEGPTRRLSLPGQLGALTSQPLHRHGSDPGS

Turning to `CNS(=O)(=O)N[C@@H]1CC[C@@H](CN2CCC3(CC2)CN(c2ncncc2Oc2ccc(F)cc2C(=O)N(CC(F)F)C(C)C)C3)OC1` [Compound 102, N-(2,2-Difluoroethyl)-5-fluoro-N-isopropyl-2-((4-(7-(((2S,5R)-5-((N-methylsulfamoyl)amino)tetrahydro-2H-pyran-2-yl)methyl)-2,7-diazaspiro[3.5]nonan-2-yl)pyrimidin-5-yl)oxy)benzamide], the Ki at Menin-MLL was under 1 nM. At hERG, the “hERG % Remaining 30 μM” value is reported as “+++ (“+++” means ≥66%)” and the half-maximal inhibitory concentration (IC50) was at least 50000 nM.
In the case of `CC(C)N(CC(F)F)C(=O)c1cc(F)ccc1Oc1cncnc1N1CC2(CCN(C[C@@H]3CC[C@@H](NS(=O)(=O)c4ccn(C)n4)CO3)CC2)C1` [Compound 103, N-(2,2-Difluoroethyl)-5-fluoro-N-isopropyl-2-((4-(7-(((2S,5R)-5-((1-methyl-1H-pyrazole)-3-sulfonamido)tetrahydro-2H-pyran-2-yl)methyl)-2,7-diazaspiro[3.5]nonan-2-yl)pyrimidin-5-yl)oxy)benzamide], at Menin-MLL, the inhibition constant Ki is under 1 nM. In addition, on hERG, the “hERG % Remaining 30 μM” value is reported as “+++ (“+++” means ≥66%)”.
Turning to `Cc1c(S(=O)(=O)N[C@@H]2CC[C@@H](CN3CCC4(CC3)CN(c3ncncc3Oc3ccc(F)cc3C(=O)N(CC(F)F)C(C)C)C4)OC2)cnn1C` [Compound 104, N-(2,2-Difluoroethyl)-2-((4-(7-(((2S,5R)-5-((1,5-dimethyl-1H-pyrazole)-4-sulfonamido)tetrahydro-2H-pyran-2-yl)methyl)-2,7-diazaspiro[3.5]nonan-2-yl)pyrimidin-5-yl)oxy)-5-fluoro-N-isopropylbenzamide], at Menin-MLL, the Ki is under 1 nM. In addition, on hERG, the “hERG % Remaining 30 μM” value was “+++ (“+++” means ≥66%)”.
On to `Cc1nn(C)cc1S(=O)(=O)N[C@@H]1CC[C@@H](CN2CCC3(CC2)CN(c2ncncc2Oc2ccc(F)cc2C(=O)N(CC(F)F)C(C)C)C3)OC1` [Compound 105, N-(2,2-Difluoroethyl)-2-((4-(7-(((2S,5R)-5-((1,3-dimethyl-1H-pyrazole)-4-sulfonamido)tetrahydro-2H-pyran-2-yl)methyl)-2,7-diazaspiro[3.5]nonan-2-yl)pyrimidin-5-yl)oxy)-5-fluoro-N-isopropylbenzamide], for which, at Menin-MLL, the Ki is under 1 nM. In addition, the “hERG % Remaining 30 μM” value on hERG is “+++ (“+++” means ≥66%)”.
Regarding `CC(C)N(CC(F)(F)F)C(=O)c1cc(F)ccc1Oc1cncnc1N1CC2(CCN(C[C@@H]3CC[C@@H](NS(=O)(=O)N(C)C)CO3)CC2)C1` [Compound 107, 2-((4-(7-(((2S,5R)-5-((N,N-Dimethylsulfamoyl)amino)tetrahydro-2H-pyran-2-yl)methyl)-2,7-diazaspiro[3.5]nonan-2-yl)pyrimidin-5-yl)oxy)-5-fluoro-N-isopropyl-N-(2,2,2-trifluoroethyl)benzamide], at Menin-MLL, the EC50 was under 50 nM and the Ki is under 1 nM. Also, on hERG, the “hERG % Remaining 10 μM” value is “+++ (“+++” means ≥66%)”; the “hERG % Remaining 30 μM” value is “++ (“++” means ≥33% and <66%)”.
Take `CC(C)N(C(=O)c1cc(F)ccc1Oc1cncnc1N1CC2(CCN(C[C@@H]3CC[C@@H](NS(=O)(=O)C4CC4)CO3)CC2)C1)C1CC(F)(F)C1` [Compound 111, 2-((4-(7-(((2S,5R)-5-(Cyclopropanesulfonamido)tetrahydro-2H-pyran-2-yl)methyl)-2,7-diazaspiro[3.5]nonan-2-yl)pyrimidin-5-yl)oxy)-N-(3,3-difluorocyclobutyl)-5-fluoro-N-isopropylbenzamide]: at Menin-MLL, the EC50 is under 50 nM and the inhibitory constant (Ki) was under 1 nM. In addition, at hERG, the “hERG % Remaining 10 μM” value was “++ (“++” means ≥33% and <66%)”; the “hERG % Remaining 30 μM” value is listed as “+ (“+” means <33%)”.
